What was measured:
Test in all cases: General herbicidal evaluation, postemergence
Assay type in all cases: in vivo
Conditions in all cases: 16 days after treatment
[1] = tested on: barnyardgrass (Echinochloa crusgalli, ECHCG)
Description: (§1) Applications of methylidene mevalonate were made either to the foliage (postemergence) or soil (preemergence). Seeds of sunflower (Helianthus annus, HELAN), morningglory (Ipomoea hederacea, IPOHE) velvetleaf (Abutilon theophrasti, ABUTH), pigweed (Amaranthus spp., AMARE), barnyardgrass (Echinochloa crusgalli, ECHCG), giant foxtail (Setaria faberi, SETFA), wild oats (Avena fatua, AVEFA), and blackgrass (Alopecurus myosuroides, ALOMY) were planted in mineral soil (sandy clay loam, 51% sand, 26% silt, 23% clay, 2.8% O.M., pH 7.8) and Metro-mix (Bulk Sak, Inc., Malvern, Ark., USA) for preemergence and postemergence treatments, respectively. Pots receiving preemergence treatments were watered immediately following application. Prior to postemergence treatment, plants were grown in the greenhouse (16 h photoperiod, 27 C) and thinned to a density of 2 to 15 plants pot^−1, depending on species. At the time of postemergence applications, plants were 8-12 days old, 3 to 10 cm in height, and in the 1- to 3-true-leaf stage. Natural light in the greenhouse was supplemented with metal halide lights that provided an average photosynthetic photon flux of 500 μmol m^−2s^−1.
(§2) A sample of sodium methylidene mevalonate was dissolved in 4 mL of distilled water followed by 10 mL of formulation stock “B” (200 mL isopropanol, 20 mL crop oil concentrate, 0.4 g Triton X-155 [Sigma Chemical Co., St. Louis, Mo. 62718], and 78 mL water). This was followed by three 1:1 (v/v) serial dilutions using formulation stock “C” (100 mL isopropanol, 10 mL crop oil concentrate, 0.2 g Triton X-155, 390 mL water, 485 mL acetone and 15 mL DMSO).
(§3) Treatments were made at four different doses (4000, 2000, 1000, and 500 g ha^−1). For preemergence treatments, 1.75 mL of spray solution were applied to the soil surface in each pot using a glass Cornwall syringe fitted with a Teejet SS8001E flat-fan nozzle (Spraying Systems Co., Wheaton, Ill. 60189-7900). For postemergence applications, the foliage of the test plants was sprayed using a DeVilbiss atomizer (DeVilbiss Health Car, Inc., Somerset, Pa. 15501) driven by compressed air at a pressure of 22 kPa. Untreated controls were included.
(§4) Pots were placed in the greenhouse following compound application. Pots from postemergence and preemergence were sub-irrigated and top-watered, respectively, as needed for the duration of the test. […]

[2] = tested on: wild oats (Avena fatua, AVEFA)
Description: as §1, §2, §3, §4

[3] = tested on: pigweed (Amaranthus spp., AMARE)
Description: as §1, §2, §3, §4

[4] = tested on: giant foxtail (Setaria faberi, SETFA)
Description: as §1, §2, §3, §4

[5] = tested on: blackgrass (Alopecurus myosuroides, ALOMY)
Description: as §1, §2, §3, §4

[6] = tested on: morningglory (Ipomoea hederacea, IPOHE)
Description: as §1, §2, §3, §4

[7] = tested on: sunflower (Helianthus annus, HELAN)
Description: as §1, §2, §3, §4

For `C=C(CO)C(C)(O)CC(=O)O` (stereo not shown) [methylidene mevalonate, 3-hydroxy-4-(hydroxymethyl)-3-methylpent-4-enoic acid], the “Visual Injury (%)” value ([1]; 0.5 kg ha^−1, ECHCG) was 60%, the “Visual Injury (%)” value ([1]; 1.0 kg ha^−1, ECHCG) was 70% and the “Visual Injury (%)” value ([1]; 2.0 kg ha^−1, ECHCG) was 70%. The “Visual Injury (%)” value ([1]; 4.0 kg ha^−1, ECHCG) was 90%, the “Visual Injury (%)” value ([2]; 0.5 kg ha^−1, AVEFA) was 40% and the “Visual Injury (%)” value ([2]; 1.0 kg ha^−1, AVEFA) was 60%. The “Visual Injury (%)” value ([2]; 2.0 kg ha^−1, AVEFA) was 60%, the “Visual Injury (%)” value ([2]; 4.0 kg ha^−1, AVEFA) was 85% and the “Visual Injury (%)” value ([3]; 0.5 kg ha^−1, AMARE) was 30%. For the same compound, the “Visual Injury (%)” value ([3]; 1.0 kg ha^−1, AMARE) was 50%, the “Visual Injury (%)” value ([3]; 2.0 kg ha^−1, AMARE) was 40% and the “Visual Injury (%)” value ([3]; 4.0 kg ha^−1, AMARE) was 50%. For the same compound, the “Visual Injury (%)” value ([4]; 0.5 kg ha^−1, SETFA) was 40%, the “Visual Injury (%)” value ([4]; 1.0 kg ha^−1, SETFA) was 50% and the “Visual Injury (%)” value ([4]; 2.0 kg ha^−1, SETFA) was 50%. The “Visual Injury (%)” value ([4]; 4.0 kg ha^−1, SETFA) was 70%, the “Visual Injury (%)” value ([5]; 0.5 kg ha^−1, ALOMY) was 30% and the “Visual Injury (%)” value ([5]; 1.0 kg ha^−1, ALOMY) was 30%. The “Visual Injury (%)” value ([5]; 2.0 kg ha^−1, ALOMY) was 60%, the “Visual Injury (%)” value ([5]; 4.0 kg ha^−1, ALOMY) was 60% and the “Visual Injury (%)” value ([6]; 0.5 kg ha^−1, IPOHE) was 60%. For the same compound, the “Visual Injury (%)” value ([6]; 1.0 kg ha^−1, IPOHE) was 60%, the “Visual Injury (%)” value ([6]; 2.0 kg ha^−1, IPOHE) was 65% and the “Visual Injury (%)” value ([6]; 4.0 kg ha^−1, IPOHE) was 75%. For the same compound, the “Visual Injury (%)” value ([7]; 0.5 kg ha^−1, HELAN) was 30%, the “Visual Injury (%)” value ([7]; 1.0 kg ha^−1, HELAN) was 40% and the “Visual Injury (%)” value ([7]; 2.0 kg ha^−1, HELAN) was 60%. For the same compound, the “Visual Injury (%)” value ([7]; 4.0 kg ha^−1, HELAN) was 70%.

From patent publication US7393812B2, “Methylidene mevalonates and their use as herbicides” (Dow AgroSciences LLC, priority 2004, dated 2008)
